Measurements taken from patent publication US9643963B2, “Antiparasitic compounds” (Avista Pharma Solutions, Inc., priority 2013, dated 2017).

System: Dirofilaria immitis
Assay: Dirofilaria immitis microfilariae motility assay or L4 stage assay (the source does not say which gave the EC50 values)
Format: cell-based
Settings: 72 h, read-out: EC50 values

SMILES | EC50
O=C(Nc1nc(-c2ccccn2)ns1)c1ccc(C(=O)N2CCCCC2)cc1 [Compound 72, 4-(piperidine-1-carbonyl)-N-[3-(2-pyridyl)-1,2,4-thiadiazol-5-yl]benzamide] | < 5 µM
O=C(Nc1nc(-c2ccccn2)ns1)c1ccc(NC2CCNCC2)cc1 [Compound 79, 4-(4-piperidylamino)-N-[3-(2-pyridyl)-1,2,4-thiadiazol-5-yl]benzamide] | < 5 µM
O=C(Nc1nc(-c2ccccn2)ns1)c1ccc(I)cc1 [Compound 67, 4-iodo-N-[3-(2-pyridyl)-1,2,4-thiadiazol-5-yl]benzamide] | < 5 µM
O=C(Nc1nc(-c2ccccn2)ns1)c1ccc(NCc2ccccc2)cc1 [Compound 118, 4-(benzylamino)-N-[3-(2-pyridyl)-1,2,4-thiadiazol-5-yl]benzamide] | < 5 µM
CC(C)(C)COc1ccnc(-c2nsc(NC(=O)c3ccc(C(F)(F)F)cc3)n2)c1 [Compound 143, N-[3-[4-(2,2-dimethylpropoxy)-2-pyridyl]-1,2,4-thiadiazol-5-yl]-4-(trifluoromethyl)benzamide] | < 5 µM
O=C(Nc1nc(-c2cccc(-c3cccnc3)n2)ns1)c1ccc(C(F)(F)F)cc1 [Compound 116, N-[3-[6-(3-pyridyl)-2-pyridyl]-1,2,4-thiadiazol-5-yl]-4-(trifluoromethyl)benzamide] | < 5 µM
O=C(Nc1nc(-c2ccccn2)ns1)c1cccc(Nc2ccccc2)c1 [Compound 119, 3-anilino-N-[3-(2-pyridyl)-1,2,4-thiadiazol-5-yl]benzamide] | < 5 µM
CC(C)(C)OC(=O)N1CCN(C(=O)c2ccc(C(=O)Nc3nc(-c4ccccn4)ns3)cc2)CC1 [Compound 70, tert-butyl 4-[4-[[3-(2-pyridyl)-1,2,4-thiadiazol-5-yl]carbamoyl]benzoyl]piperazine-1-carboxylate] | < 5 µM
O=C(Nc1nc(-c2ccccn2)ns1)c1ccc(Cc2ccccc2)cc1 [Compound 89, 4-benzyl-N-[3-(2-pyridyl)-1,2,4-thiadiazol-5-yl]benzamide] | < 5 µM
